Experimental data reported in PMC5218480 (PLoS ONE, 2017).

System: MV-4-11 cells
Assay: Gene expression microarray analysis (Affymetrix PrimeView) and GSEA
Type: cell-based, human
Set-up: RFU PODN (11730768_x_at) / Fold change /veh PODN (11730768_x_at) / RFU LINC00158 (11744669_a_at) / Fold change /veh LINC00158 (11744669_a_at) / RFU DUSP10 (11751237_a_at) / Fold change /veh DUSP10 (11751237_a_at) / RFU ID3 (11757404_x_at) / Fold change /veh ID3 (11757404_x_at) / RFU PLEKHG5 (11737974_s_at) / Fold change /veh PLEKHG5 (11737974_s_at) / RFU LRRC4B (11730491_at) / Fold change /veh LRRC4B (11730491_at) / RFU GIMAP4 (11747438_a_at) / Fold change /veh GIMAP4 (11747438_a_at) / RFU KRT8 (11758183_x_at) / Fold change /veh KRT8 (11758183_x_at) / RFU CNN1 (11734310_a_at) / Fold change /veh CNN1 (11734310_a_at) / RFU VPS37D (11726825_at) / Fold change /veh VPS37D (11726825_at) / RFU C10orf10 (11716522_x_at) / Fold change /veh C10orf10 (11716522_x_at) / RFU KIR2DL2 /// KIR2DL4 /// KIR2DL5A /// KIR2DL5B /// KIR2DS1 /// KIR2DS2 /// KIR2DS3 /// KIR2DS4 /// KIR3DL3 /// KIR3DL3 /// KIR3DS1 (11738374_at) / Fold change /veh KIR2DL2 /// KIR2DL4 /// KIR2DL5A /// KIR2DL5B /// KIR2DS1 /// KIR2DS2 /// KIR2DS3 /// KIR2DS4 /// KIR3DL3 /// KIR3DL3 /// KIR3DS1 (11738374_at) / RFU C1QL1 (11718748_at) / Fold change /veh C1QL1 (11718748_at) / RFU TMPRSS4 (11747572_a_at) / Fold change /veh TMPRSS4 (11747572_a_at) / RFU HAMP (11756126_x_at) / Fold change /veh HAMP (11756126_x_at) / RFU RNFT2 (11725882_a_at) / Fold change /veh RNFT2 (11725882_a_at) / RFU NR4A2 (11747474_a_at) / Fold change /veh NR4A2 (11747474_a_at) / RFU ABCC12 (11746883_a_at) / Fold change /veh ABCC12 (11746883_a_at) / RFU TMEM136 (11760407_x_at) / Fold change /veh TMEM136 (11760407_x_at) / RFU CLDN22 /// WWC2 (11732394_at) / Fold change /veh CLDN22 /// WWC2 (11732394_at) / RFU HLA-DPB1 (11760878_x_at) / Fold change /veh HLA-DPB1 (11760878_x_at) / RFU SPINT1 (11716480_a_at) / Fold change /veh SPINT1 (11716480_a_at) / RFU GAP43 (11754022_s_at) / Fold change /veh GAP43 (11754022_s_at) / RFU A4GNT (11735810_at) / Fold change /veh A4GNT (11735810_at) / RFU PRB3 (11715151_x_at) / Fold change /veh PRB3 (11715151_x_at) / RFU TUBB4B (11761932_at) / Fold change /veh TUBB4B (11761932_at) / RFU CAPN14 (11732068_a_at) / Fold change /veh CAPN14 (11732068_a_at) / RFU TMCC2 (11721928_a_at) / Fold change /veh TMCC2 (11721928_a_at) / RFU IRGQ (11745062_a_at) / Fold change /veh IRGQ (11745062_a_at) / RFU FAM174B (11720279_a_at) / Fold change /veh FAM174B (11720279_a_at) / RFU TMPRSS4 (11748680_a_at) / Fold change /veh TMPRSS4 (11748680_a_at) / RFU FAM212B (11763350_a_at) / Fold change /veh FAM212B (11763350_a_at) / RFU PLEKHG5 (11743358_a_at) / Fold change /veh PLEKHG5 (11743358_a_at) / RFU ZSCAN30 (11745921_a_at) / Fold change /veh ZSCAN30 (11745921_a_at) / RFU CMKLR1 (11741424_a_at) / Fold change /veh CMKLR1 (11741424_a_at) / RFU LOC101060620 /// MAPK8IP1 (11723275_at) / Fold change /veh LOC101060620 /// MAPK8IP1 (11723275_at) / RFU SPTSSB (11747773_x_at) / Fold change /veh SPTSSB (11747773_x_at) / RFU PRSS12 (11739890_at) / Fold change /veh PRSS12 (11739890_at) / RFU BIN1 (11741810_x_at) / Fold change /veh BIN1 (11741810_x_at) / RFU WNT11 (11732464_a_at) / Fold change /veh WNT11 (11732464_a_at) / RFU C10orf10 (11716521_a_at) / Fold change /veh C10orf10 (11716521_a_at) / RFU C5orf56 (11738089_at) / Fold change /veh C5orf56 (11738089_at) / RFU CYB561 (11721691_x_at) / Fold change /veh CYB561 (11721691_x_at) / RFU ANKRD19P (11752326_a_at) / Fold change /veh ANKRD19P (11752326_a_at) / RFU OR2T12 /// OR2T33 /// OR2T8 (11738714_s_at) / Fold change /veh OR2T12 /// OR2T33 /// OR2T8 (11738714_s_at) / RFU VCAN (11748164_a_at) / Fold change /veh VCAN (11748164_a_at) / RFU JSRP1 (11732532_at) / Fold change /veh JSRP1 (11732532_at) / RFU KRTAP10-11 (11738290_x_at) / Fold change /veh KRTAP10-11 (11738290_x_at) / RFU MYO3A (11730013_a_at) / Fold change /veh MYO3A (11730013_a_at) / RFU EBF3 (11725865_a_at) / Fold change /veh EBF3 (11725865_a_at) / RFU CAMK2N1 (11719241_x_at) / Fold change /veh CAMK2N1 (11719241_x_at) / RFU C5orf56 (11738088_a_at) / Fold change /veh C5orf56 (11738088_a_at) / RFU OLFML3 (11715873_a_at) / Fold change /veh OLFML3 (11715873_a_at) / RFU LOC100653217 /// NTM (11731650_a_at) / Fold change /veh LOC100653217 /// NTM (11731650_a_at) / RFU MAPK11 (11762145_a_at) / Fold change /veh MAPK11 (11762145_a_at) / RFU FIZ1 (11724087_x_at) / Fold change /veh FIZ1 (11724087_x_at) / RFU OASL (11726364_x_at) / Fold change /veh OASL (11726364_x_at) / RFU SOX15 (11748057_x_at) / Fold change /veh SOX15 (11748057_x_at) / RFU CD79A (11719716_a_at) / Fold change /veh CD79A (11719716_a_at) / RFU HIST1H1D (11736915_at) / Fold change /veh HIST1H1D (11736915_at) / RFU CASKIN2 (11723855_a_at) / Fold change /veh CASKIN2 (11723855_a_at) / RFU LOC730098 (11760151_x_at) / Fold change /veh LOC730098 (11760151_x_at) / RFU OR4N2 (11742367_at) / Fold change /veh OR4N2 (11742367_at) / RFU PRRT2 (11749266_a_at) / Fold change /veh PRRT2 (11749266_a_at) / RFU SNX32 (11753110_a_at) / Fold change /veh SNX32 (11753110_a_at) / RFU CDHR5 (11726645_a_at) / Fold change /veh CDHR5 (11726645_a_at) / RFU RCAN1 (11760418_a_at) / Fold change /veh RCAN1 (11760418_a_at) / RFU FAM167A (11723789_a_at) / Fold change /veh FAM167A (11723789_a_at) / RFU FAM26E (11764081_at) / Fold change /veh FAM26E (11764081_at) / RFU ISYNA1 (11749810_s_at) / Fold change /veh ISYNA1 (11749810_s_at) / RFU ACY1 (11761880_at) / Fold change /veh ACY1 (11761880_at) / RFU 11764098_at / Fold change /veh 11764098_at / RFU SAMD14 (11745864_x_at) / Fold change /veh SAMD14 (11745864_x_at) / RFU NPB (11741838_a_at) / Fold change /veh NPB (11741838_a_at) / RFU TMPRSS6 (11731388_a_at) / Fold change /veh TMPRSS6 (11731388_a_at) / RFU KRTAP10-2 (11738614_at) / Fold change /veh KRTAP10-2 (11738614_at) / RFU ARHGAP8 /// PRR5-ARHGAP8 (11727945_x_at) / Fold change /veh ARHGAP8 /// PRR5-ARHGAP8 (11727945_x_at) / RFU KRTAP5-7 /// NADSYN1 (11734609_at) / Fold change /veh KRTAP5-7 /// NADSYN1 (11734609_at) / RFU RASL12 (11751679_a_at) / Fold change /veh RASL12 (11751679_a_at) / RFU CDKN2B (11736163_a_at) / Fold change /veh CDKN2B (11736163_a_at) / RFU PRF1 (11729649_at) / Fold change /veh PRF1 (11729649_at) / RFU, ZNF638 /// ZNF638-IT1 / Fold change vs veh, ZNF638 /// ZNF638-IT1 / RFU, PANK3 / Fold change vs veh, PANK3 / RFU, SH3YL1 / Fold change vs veh, SH3YL1 / RFU, ZEB2 / Fold change vs veh, ZEB2 / RFU, NRIP1 / Fold change vs veh, NRIP1 / RFU, PTTG1IP / Fold change vs veh, PTTG1IP / RFU, CAPN2 / Fold change vs veh, CAPN2 / RFU, MED14 / Fold change vs veh, MED14 / RFU, SNORA58 / Fold change vs veh, SNORA58 / RFU, C1orf63 / Fold change vs veh, C1orf63 / RFU, LRRFIP1 / Fold change vs veh, LRRFIP1 / RFU, NDUFAF7 / Fold change vs veh, NDUFAF7 / RFU, SLC12A2 / Fold change vs veh, SLC12A2 / RFU, IBTK / Fold change vs veh, IBTK / RFU, ESF1 / Fold change vs veh, ESF1 / Fold change vs veh, TMEM50B / RFU, TAOK1 / Fold change vs veh, TAOK1 / RFU, ACBD3 / Fold change vs veh, ACBD3 / RFU, TMA16 / Fold change vs veh, TMA16 / RFU, RWDD3 / Fold change vs veh, RWDD3 / RFU, BCAT1 / Fold change vs veh, BCAT1 / RFU, EDEM3 / Fold change vs veh, EDEM3 / RFU, TMEM33 / Fold change vs veh, TMEM33 / RFU, WDR75 / Fold change vs veh, WDR75 / RFU, AHCTF1 / Fold change vs veh, AHCTF1 / RFU, TFRC / Fold change vs veh, TFRC / RFU, ZDHHC17 / Fold change vs veh, ZDHHC17 / RFU, NOM1 / Fold change vs veh, NOM1 / RFU, ARL8B / Fold change vs veh, ARL8B / RFU, ZBTB11 / Fold change vs veh, ZBTB11 / RFU, TAMM41 / Fold change vs veh, TAMM41 / RFU, KIAA1704 /// LOC100996395 / Fold change vs veh, KIAA1704 /// LOC100996395 / RFU, ING1 / Fold change vs veh, ING1 / RFU, TRMT61B / Fold change vs veh, TRMT61B / RFU, FUBP3 / Fold change vs veh, FUBP3 / RFU, TP53 / Fold change vs veh, TP53 / RFU, TNKS2 / Fold change vs veh, TNKS2 / RFU, ZFP14 / Fold change vs veh, ZFP14 / RFU, ACTR2 / Fold change vs veh, ACTR2 / RFU, PPP3R1 / Fold change vs veh, PPP3R1 / RFU, PIK3R1 / Fold change vs veh, PIK3R1 / RFU, HNRNPA1 / Fold change vs veh, HNRNPA1 / RFU, RNF170 / Fold change vs veh, RNF170 / RFU, ZNF28 / Fold change vs veh, ZNF28 / RFU, RNGTT / Fold change vs veh, RNGTT / RFU, OGT / Fold change vs veh, OGT / RFU, BRD1 / Fold change vs veh, BRD1 / RFU, MARS / Fold change vs veh, MARS / RFU, ZNF655 / Fold change vs veh, ZNF655 / RFU, FAHD1 / Fold change vs veh, FAHD1 / RFU, BDP1 / Fold change vs veh, BDP1 / RFU, LRRCC1 / Fold change vs veh, LRRCC1 / RFU, ARID1A / Fold change vs veh, ARID1A / RFU, ZNF146 / Fold change vs veh, ZNF146 / RFU, ZNF330 / Fold change vs veh, ZNF330 / RFU, GPN3 / Fold change vs veh, GPN3 / RFU, C9orf123 / Fold change vs veh, C9orf123 / RFU, N4BP2L2 / Fold change vs veh, N4BP2L2 / RFU, ARFIP1 / Fold change vs veh, ARFIP1 / RFU, FAM179B / Fold change vs veh, FAM179B / RFU, BCL10 / Fold change vs veh, BCL10 / RFU, UHRF1BP1L / Fold change vs veh, UHRF1BP1L / RFU, BET1 / Fold change vs veh, BET1 / RFU, CNOT2 / Fold change vs veh, CNOT2 / RFU, ZNF268 / Fold change vs veh, ZNF268 / Fold change vs veh, ZNF507 / RFU, DGCR2 / Fold change vs veh, DGCR2 / RFU, WDSUB1 / Fold change vs veh, WDSUB1 / Fold change vs veh, HSP90B1 /// MIR3652 / RFU, ADSS / Fold change vs veh, ADSS / RFU, GK / Fold change vs veh, GK / RFU, ZNF148 / Fold change vs veh, ZNF148 / RFU, TAF9 / Fold change vs veh, TAF9 / RFU, SLC1A5 / Fold change vs veh, SLC1A5 / RFU, SLMO2 / Fold change vs veh, SLMO2 / RFU, ABCC4 / Fold change vs veh, ABCC4 / RFU, LOC101060439 /// RAP1B / Fold change vs veh, LOC101060439 /// RAP1B / RFU, RFX7 / Fold change vs veh, RFX7 / RFU, GTPBP10 / Fold change vs veh, GTPBP10 / RFU, CNEP1R1 / Fold change vs veh, CNEP1R1 / RFU, BIVM-ERCC5 /// ERCC5 / Fold change vs veh, BIVM-ERCC5 /// ERCC5 / RFU, ILF3 / Fold change vs veh, ILF3 / RFU 11762660_at / Fold change /veh 11762660_at / RFU VCAN (11757783_s_at) / Fold change /veh VCAN (11757783_s_at) / RFU DDX43 (11728927_at) / Fold change /veh DDX43 (11728927_at) / RFU KRT8 (11758188_x_at) / Fold change /veh KRT8 (11758188_x_at) / RFU NKD1 (11759106_at) / Fold change /veh NKD1 (11759106_at) / RFU SRD5A1 (11742802_a_at) / Fold change /veh SRD5A1 (11742802_a_at) / RFU TPSAB1 /// TPSB2 (11721975_s_at) / Fold change /veh TPSAB1 /// TPSB2 (11721975_s_at) / RFU GSTM3 (11746129_a_at) / Fold change /veh GSTM3 (11746129_a_at) / RFU IL23R (11737362_x_at) / Fold change /veh IL23R (11737362_x_at) / RFU TMEM51 (11727254_a_at) / Fold change /veh TMEM51 (11727254_a_at) / RFU PIWIL2 (11732686_x_at) / Fold change /veh PIWIL2 (11732686_x_at) / RFU ORM1 (11744905_x_at) / Fold change /veh ORM1 (11744905_x_at) / RFU CCDC152 (11743942_at) / Fold change /veh CCDC152 (11743942_at) / RFU ECM1 (11717891_a_at) / Fold change /veh ECM1 (11717891_a_at) / RFU IL23R (11748794_a_at) / Fold change /veh IL23R (11748794_a_at) / RFU TNFAIP8L3 (11732012_x_at) / Fold change /veh TNFAIP8L3 (11732012_x_at) / RFU MBOAT4 (11741988_at) / Fold change /veh MBOAT4 (11741988_at) / RFU 11764193_at / Fold change /veh 11764193_at / RFU TMEM53 (11763286_at) / Fold change /veh TMEM53 (11763286_at) / RFU MAGEB2 (11727129_at) / Fold change /veh MAGEB2 (11727129_at) / RFU TMEM200A (11744735_a_at) / Fold change /veh TMEM200A (11744735_a_at) / RFU CCDC152 (11751479_a_at) / Fold change /veh CCDC152 (11751479_a_at) / RFU FAM211A (11726209_a_at) / Fold change /veh FAM211A (11726209_a_at) / RFU RGS16 (11746705_a_at) / Fold change /veh RGS16 (11746705_a_at) / RFU VCAN (11755009_s_at) / Fold change /veh VCAN (11755009_s_at) / RFU RHOB (11743442_s_at) / Fold change /veh RHOB (11743442_s_at) / RFU RGS16 (11720943_a_at) / Fold change /veh RGS16 (11720943_a_at) / RFU RGS16 (11720944_at) / Fold change /veh RGS16 (11720944_at) / RFU, VPS4B / Fold change vs veh, VPS4B / RFU, CREB1 / Fold change vs veh, CREB1 / RFU, DNAJC13 / Fold change vs veh, DNAJC13 / RFU, GNAQ / Fold change vs veh, GNAQ / RFU, CDK5R1 / Fold change vs veh, CDK5R1 / RFU, ZRANB3 / Fold change vs veh, ZRANB3 / RFU, CUL4A / Fold change vs veh, CUL4A / RFU, CCNY / Fold change vs veh, CCNY / RFU, UFL1 / Fold change vs veh, UFL1 / RFU, COG3 / Fold change vs veh, COG3 / RFU, DIAPH2 / Fold change vs veh, DIAPH2 / RFU, SKA2 / Fold change vs veh, SKA2 / RFU, AFF3 / Fold change vs veh, AFF3 / RFU, LMF1 / Fold change vs veh, LMF1 / RFU, IPO11 / Fold change vs veh, IPO11 / RFU, DFFB / Fold change vs veh, DFFB / RFU, FOXP1 / Fold change vs veh, FOXP1 / RFU, CARD8 / Fold change vs veh, CARD8 / RFU, STRN3 / Fold change vs veh, STRN3 / RFU, ADK / Fold change vs veh, ADK / RFU, RASSF2 / Fold change vs veh, RASSF2 / RFU, WIPF1 / Fold change vs veh, WIPF1 / RFU, LARP1B / Fold change vs veh, LARP1B / RFU, RASA1 / Fold change vs veh, RASA1 / RFU, RB1 / Fold change vs veh, RB1 / RFU, PPFIA1 / Fold change vs veh, PPFIA1 / RFU, MAT2A / Fold change vs veh, MAT2A / RFU, CCT5 / Fold change vs veh, CCT5 / RFU, WDR92 / Fold change vs veh, WDR92 / RFU, CUX1 / Fold change vs veh, CUX1 / RFU, TTC7A / Fold change vs veh, TTC7A / RFU, TMEM135 / Fold change vs veh, TMEM135 / RFU, DEPTOR / Fold change vs veh, DEPTOR / RFU, CPM / Fold change vs veh, CPM / RFU, DNAJB6 / Fold change vs veh, DNAJB6 / RFU, CACNA2D3 / Fold change vs veh, CACNA2D3 / RFU, DTX4 / Fold change vs veh, DTX4 / RFU, TFCP2 / Fold change vs veh, TFCP2 / RFU, GMCL1 /// GMCL1P1 / Fold change vs veh, GMCL1 /// GMCL1P1 / RFU, AEBP2 / Fold change vs veh, AEBP2 / RFU, SNHG1 /// SNORD22 /// SNORD25 /// SNORD26 /// SNORD27 /// SNORD28 /// SNORD29 /// SNORD31 / Fold change vs veh, SNHG1 /// SNORD22 /// SNORD25 /// SNORD26 /// SNORD27 /// SNORD28 /// SNORD29 /// SNORD31 / Fold change (Aza/veh), C12orf56 (ProbeSet 11735607_a_at) / Fold change (ACY-1035/veh), C12orf56 (ProbeSet 11735607_a_at) / Fold change (Aza/veh), FGFR1OP (ProbeSet 11751329_s_at) / Fold change (ACY-1035/veh), FGFR1OP (ProbeSet 11751329_s_at) / Fold change (Aza/veh), VPS36 (ProbeSet 11739960_a_at) / Fold change (ACY-1035/veh), VPS36 (ProbeSet 11739960_a_at) / RFU SYPL1 (11715823_x_at) / Fold change /veh SYPL1 (11715823_x_at) / RFU IGFBP7 (11715501_s_at) / Fold change /veh IGFBP7 (11715501_s_at) / RFU REEP3 (11722064_at) / Fold change /veh REEP3 (11722064_at) / RFU IGLL1 (11728026_x_at) / Fold change /veh IGLL1 (11728026_x_at): dose or concentration left out as unconfirmed
Details: MV-4-11 cells, 48 hours

**Q.** Which “Fold change /veh 11762660_at” value does the source give for `Nc1ncn([C@@H]2O[C@H](CO)[C@@H](O)[C@H]2O)c(=O)n1` [azacitidine] here?
**A.** The value was 1.27.
